# Source: patent US6686355B2, “Biphenyl sulfonamides useful as matrix metalloproteinase inhibitors” (Warner-Lambert Company, priority 2001, dated 2004)
# Assays:
# Assay type in all cases: biochemical
# [1] = biological target: T1, MMP-2FL (full length Gelatinase A) (Homo sapiens, UniProt P08253); assay: Thiopeptolide hydrolysis assay, MMP-2FL; conditions: thiopeptolide substrate, HEPES pH 7.0, 22° C.
# T1 sequence (P08253 110-660): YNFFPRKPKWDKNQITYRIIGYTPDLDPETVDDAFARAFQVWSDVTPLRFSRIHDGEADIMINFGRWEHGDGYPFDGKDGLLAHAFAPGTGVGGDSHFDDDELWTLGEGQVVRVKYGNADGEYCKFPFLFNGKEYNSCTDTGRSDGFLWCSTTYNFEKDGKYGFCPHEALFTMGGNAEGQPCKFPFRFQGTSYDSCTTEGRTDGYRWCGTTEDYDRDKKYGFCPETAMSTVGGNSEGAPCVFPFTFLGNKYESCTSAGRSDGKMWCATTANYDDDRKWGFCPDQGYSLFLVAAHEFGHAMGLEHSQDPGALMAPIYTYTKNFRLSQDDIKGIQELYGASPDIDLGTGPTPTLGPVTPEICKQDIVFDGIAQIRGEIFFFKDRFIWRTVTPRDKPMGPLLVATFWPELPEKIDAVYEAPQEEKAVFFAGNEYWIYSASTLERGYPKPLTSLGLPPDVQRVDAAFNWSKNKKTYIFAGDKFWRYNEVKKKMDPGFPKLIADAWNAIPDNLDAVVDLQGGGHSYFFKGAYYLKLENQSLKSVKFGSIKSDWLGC
# Text: (§1) The assays measure the amount by which a test compound reduces the hydrolysis of a thiopeptolide substrate catalyzed by a matrix metalloproteinase enzyme. Such assays are described in detail by Ye et al., in Biochemistry, 1992;31(45):11231-11235, which is incorporated herein by reference.
# (§2) Thiopeptolide substrates show virtually no decomposition or hydrolysis at or below neutral pH in the absence of a matrix metalloproteinase enzyme. A typical thiopeptolide substrate commonly utilized for assays is Ac-Pro-Leu-Gly-thioester-Leu-Leu-Gly-OEt. A 100 μL assay mixture will contain 50 mM of N-2-hydroxyethylpiperazine-N′-2-ethanesulfonic acid buffer (“HEPES”) at pH 7.0, 10 mM CaCl2, 100 μM thiopeptolide substrate, and 1 mM 5,5″-dithio-bis-(2-nitro-benzoic acid) (DTNB). The thiopeptolide substrate concentration may be varied from, for example, 10 to 800 μM to obtain Km and Kcat values. The change in absorbance at 405 nm is monitored on a Thermo Max microplate reader (Molecular Devices, Menlo Park, Calif.) at room temperature (22° C.). The calculation of the amount of hydrolysis of the thiopeptolide substrate is based on E412=13600 M^−1 cm^−1 for the DTNB-derived product 3-carboxy4-nitrothiophenoxide. Assays are carried out with and without matrix metalloproteinase inhibitor compounds, and the amount of hydrolysis is compared for a determination of inhibitory activity of the test compounds.
# (§3) Several representative compounds have been evaluated for their ability to inhibit various matrix metalloproteinase enzymes. In Table I, MMP-1FL refers to full length interstitial collagenase; MMP-2FL refers to full length Gelatinase A; MMP-3CD refers to the catalytic domain of stromelysin-1; MMP-7FL refers to full length matrilysin; MMP-9FL refers to full length Gelatinase B; MMP-13CD refers to the catalytic domain of collagenase 3; and MMP-14CD refers to the catalytic domain of MMP-14. Test compounds were evaluated at various concentrations in order to determine their respective IC50 values, the micromolar concentration of compound required to cause a 50% inhibition of the catalytic activity of the respective enzyme.
# [2] = biological target: MMP-14CD (catalytic domain of MMP-14) (Homo sapiens, UniProt P50281); assay: Thiopeptolide hydrolysis assay, MMP-14CD; conditions: thiopeptolide substrate, HEPES pH 7.0, 22° C.
# Text: as §1, §2, §3
# [3] = biological target: T2, MMP-7FL (full length matrilysin) (Homo sapiens, UniProt P09237); assay: Thiopeptolide hydrolysis assay, MMP-7FL; conditions: thiopeptolide substrate, HEPES pH 7.0, 22° C.
# T2 sequence (P09237 95-267): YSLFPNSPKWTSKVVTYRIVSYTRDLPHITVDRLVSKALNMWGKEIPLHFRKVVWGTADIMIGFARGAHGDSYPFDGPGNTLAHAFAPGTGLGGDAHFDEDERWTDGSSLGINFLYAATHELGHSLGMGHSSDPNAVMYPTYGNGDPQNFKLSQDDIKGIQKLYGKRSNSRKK
# Text: as §1, §2, §3
# MMP-12CD = biological target: T3, MMP-12CD (Homo sapiens, UniProt P39900); assay: Thiopeptolide hydrolysis assay, MMP-12CD; conditions: thiopeptolide substrate, HEPES pH 7.0, 22° C.
# T3 construct: MMP-12CD
# Text: as §1, §2, §3
# [4] = biological target: MMP-13CD (catalytic domain of collagenase 3) (Homo sapiens, UniProt P45452); assay: Thiopeptolide hydrolysis assay, MMP-13CD; conditions: thiopeptolide substrate, HEPES pH 7.0, 22° C.
# Text: as §1, §2, §3
# [5] = biological target: T4, MMP-1FL (full length interstitial collagenase) (Homo sapiens, UniProt P03956); assay: Thiopeptolide hydrolysis assay, MMP-1FL; conditions: thiopeptolide substrate, HEPES pH 7.0, 22° C.
# T4 sequence (P03956 100-469): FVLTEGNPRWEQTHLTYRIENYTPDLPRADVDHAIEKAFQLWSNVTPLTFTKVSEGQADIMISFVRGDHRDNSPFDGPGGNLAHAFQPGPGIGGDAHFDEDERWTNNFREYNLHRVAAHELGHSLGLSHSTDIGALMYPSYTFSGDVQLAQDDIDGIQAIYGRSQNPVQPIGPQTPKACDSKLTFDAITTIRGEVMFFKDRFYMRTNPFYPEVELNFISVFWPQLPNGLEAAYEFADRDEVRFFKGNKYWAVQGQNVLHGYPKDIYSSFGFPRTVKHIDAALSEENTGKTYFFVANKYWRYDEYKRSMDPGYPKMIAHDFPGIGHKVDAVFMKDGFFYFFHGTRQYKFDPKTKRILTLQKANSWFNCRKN
# Text: as §1, §2, §3
# [6] = biological target: MMP-9FL (full length Gelatinase B) (Homo sapiens, UniProt P14780); assay: Thiopeptolide hydrolysis assay, MMP-9FL; conditions: thiopeptolide substrate, HEPES pH 7.0, 22° C.
# Text: as §1, §2, §3
# [7] = biological target: MMP-3CD (catalytic domain of stromelysin-1) (Homo sapiens, UniProt P08254); assay: Thiopeptolide hydrolysis assay, MMP-3CD; conditions: thiopeptolide substrate, MES pH 6.0
# Text: as §1, §2, §3
# It should be appreciated that the assay buffer used with MMP-3CD was 50 mM of 2-morpholinoethanesulfonic acid monohydrate (“MES”) at pH 6.0 rather than the HEPES buffer at pH 7.0 described above.
# Sequence of MMP-9FL (full length Gelatinase B) (P14780 94-707, species assumed): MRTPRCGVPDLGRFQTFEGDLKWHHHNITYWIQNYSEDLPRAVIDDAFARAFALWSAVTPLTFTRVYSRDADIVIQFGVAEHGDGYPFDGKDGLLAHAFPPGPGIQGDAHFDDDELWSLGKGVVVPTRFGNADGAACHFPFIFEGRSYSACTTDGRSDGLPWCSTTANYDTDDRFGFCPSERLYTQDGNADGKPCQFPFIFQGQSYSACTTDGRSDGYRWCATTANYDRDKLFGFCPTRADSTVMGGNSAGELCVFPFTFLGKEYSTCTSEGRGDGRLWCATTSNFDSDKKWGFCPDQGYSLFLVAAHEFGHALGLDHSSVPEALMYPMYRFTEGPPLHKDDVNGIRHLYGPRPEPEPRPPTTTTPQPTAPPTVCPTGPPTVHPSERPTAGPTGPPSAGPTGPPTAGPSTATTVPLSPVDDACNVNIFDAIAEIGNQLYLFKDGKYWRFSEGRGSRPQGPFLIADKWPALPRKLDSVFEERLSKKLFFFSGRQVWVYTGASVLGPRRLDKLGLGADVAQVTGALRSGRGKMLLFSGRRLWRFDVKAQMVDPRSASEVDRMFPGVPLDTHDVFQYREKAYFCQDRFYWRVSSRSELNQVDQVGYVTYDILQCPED
# Sequence of MMP-3CD (catalytic domain of stromelysin-1) (P08254 100-272 limits assumed): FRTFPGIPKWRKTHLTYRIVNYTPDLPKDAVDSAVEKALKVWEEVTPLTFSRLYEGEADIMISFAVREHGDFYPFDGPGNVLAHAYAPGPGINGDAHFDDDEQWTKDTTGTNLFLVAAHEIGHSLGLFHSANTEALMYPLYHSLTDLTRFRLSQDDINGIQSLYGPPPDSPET
# T3 sequence (P39900 106-263 limits assumed): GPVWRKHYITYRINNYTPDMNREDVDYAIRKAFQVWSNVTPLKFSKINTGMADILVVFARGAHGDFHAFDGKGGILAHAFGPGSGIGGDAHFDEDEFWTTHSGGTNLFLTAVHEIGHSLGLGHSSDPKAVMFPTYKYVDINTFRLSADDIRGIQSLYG
Compound,IC50 [1] [µM],IC50 [2] [µM],IC50 [3] [µM],IC50 (MMP-12CD) [µM],IC50 [4] [µM],IC50 [5] [µM],IC50 [6] [µM],IC50 [7] [µM]
"CC1(C)SCCN(S(=O)(=O)c2ccc(-c3ccc4ccccc4c3)cc2)[C@H]1C(=O)O [Example 36, (S)-2,2-Dimethyl-4-(4-naphthalen-2-yl-benzenesulfonyl)-thiomorpholine-3-carboxylic acid]",0.00635,0.0567,31.7,0.00113,0.0108,10.8,0.13,0.0104
"CC1(C)SCCN(S(=O)(=O)c2ccc(-c3ccc(-c4ccccc4)cc3)cc2)[C@H]1C(=O)O [Example 38, (S)-2,2-Dimethyl-4-([1,1′;4′,1″]terphenyl-4-sulfonyl)-thiomorpholine-3-carboxylic acid]",0.00135,0.0343,2.67,0.001,0.00145,1.17,0.0032,0.00295
"CC1(C)SCCN(S(=O)(=O)c2ccc(-c3ccc(F)cc3F)cc2)[C@H]1C(=O)O [Example 39, (S)-4-(2′,4′-Difluoro-biphenyl-4-sulfonyl)-2,2-dimethyl-thiomorpholine-3-carboxylic acid]",0.115,0.67,25,0.013,0.16,3.25,2.78,0.0285
"CC1(C)SCCN(S(=O)(=O)c2ccc(-c3ccc(Oc4ccccc4)cc3)cc2)[C@H]1C(=O)O [Example 40, (S)-2,2-Dimethyl-4-(4′-phenoxy-biphenyl-4-sulfonyl)-thiomorpholine-3-carboxylic acid]",0.17,1.5,13,0.004,0.1,,2.2,0.0094
"CC1(C)SCCN(S(=O)(=O)c2ccc(-c3ccc(F)c(F)c3)cc2)[C@H]1C(=O)O [Example 41, (S)-4-(3′,4′-Difluoro-biphenyl-4-sulfonyl)-2,2-dimethyl-thiomorpholine-3-carboxylic acid]",0.23,0.615,92.5,0.0285,0.3,9.7,6.65,0.054
"CCOc1ccc(-c2ccc(S(=O)(=O)N3CCSC(C)(C)[C@@H]3C(=O)O)cc2)cc1 [Example 43, (S)-4-(4′-Ethoxy-biphenyl-4-sulfonyl)-2,2-dimethyl-thiomorpholine-3-carboxylic acid]",0.0023,0.16,70,0.001,0.0033,7.95,0.018,0.0038
"CCc1ccc(-c2ccc(S(=O)(=O)N3CCSC(C)(C)[C@@H]3C(=O)O)cc2)cc1 [Example 47, (S)-4-(4′-Ethyl-biphenyl-4-sulfonyl)-2,2-dimethyl-thiomorpholine-3-carboxylic acid]",0.0061,,9,0.00125,0.01,5.4,0.14,0.0074
"CC1(C)SCCN(S(=O)(=O)c2ccc(-c3ccc(-c4ccccc4)c(F)c3)cc2)[C@H]1C(=O)O [Example 53, (S)-4-(2′-Fluoro-[1,1′;4′,1″]terphenyl-4″-sulfonyl)-2,2-dimethyl-thiomorpholine-3-carboxylic acid]",0.0043,0.145,1.85,0.001,0.0086,3.15,0.017,0.0072
"(S)-2,2-Dimethyl-4-(4-methylsulfanyl-biphenyl-4-sulfonyl)-thiomorpholine-3-carboxylic acid [Example 37]",0.0025,0.036,6.87,0.001,0.00305,2.03,0.069,0.00475
